Source: patent US10473647B1, “Peptides for use in treatment and diagnosis of type 1 diabetes” (ImmusanT, Inc., priority 2014, dated 2019)

How the values were obtained:
Type in all cases: cell-based, human
[1] = system: whole blood from subjects with T1D and Celiac disease; test: Whole blood cytokine release assay, IFN-γ (MAGPIX), Example 1; settings: individual 17mer 20 μg/mL, blood 6 days after commencing oral gluten challenge; for subjects with elevated whole blood IFN-γ release: four subjects
[2] = system: whole blood from subjects with T1D and Celiac disease; test: Whole blood cytokine release assay, IL-2 (MAGPIX), Example 1; settings: individual 17mer 20 μg/mL, blood 6 days after commencing oral gluten challenge; for subjects with elevated whole blood IL-2 release: four subjects
[3] = system: whole blood from subjects with T1D and Celiac disease; test: Whole blood cytokine release assay, IP-10 (MAGPIX), Example 1; settings: individual 17mer 20 μg/mL, blood 6 days after commencing oral gluten challenge; for subjects with elevated whole blood IP-10 release (2-fold greater than medium alone): four subjects

Sequence | IFN-g fold-change ([1]; Subject 1) | IFN-g fold-change (preproinsulin peptides) ([1]; Subject 1) | IFN-g fold-change ([1]; Subject 2) | IFN-g fold-change (preproinsulin peptides) ([1]; Subject 2) | IFN-g fold-change ([1]; Subject 6) | IFN-g fold-change (preproinsulin peptides) ([1]; Subject 6) | IFN-g fold-change ([1]; Subject 7) | IFN-g fold-change (preproinsulin peptides) ([1]; Subject 7) | IL-2 fold-change ([2]; Subject 1) | IL-2 fold-change (preproinsulin peptides) ([2]; Subject 1) | IL-2 fold-change ([2]; Subject 2) | IL-2 fold-change (preproinsulin peptides) ([2]; Subject 2) | IL-2 fold-change ([2]; Subject 6) | IL-2 fold-change (preproinsulin peptides) ([2]; Subject 6) | IL-2 fold-change ([2]; Subject 7) | IL-2 fold-change (preproinsulin peptides) ([2]; Subject 7) | IP-10 fold-change ([3]; Subject 1) | IP-10 fold-change (preproinsulin peptides) ([3]; Subject 1) | IP-10 fold-change ([3]; Subject 2) | IP-10 fold-change (preproinsulin peptides) ([3]; Subject 2) | other results
MRLLPLLALLALWGPDP [SEQ ID NO: 47] | 1.02 | 1.02 fold | 0.85 | 0.85 fold | 0.91 | 0.91 fold | 0.53 | 0.53 fold | 1.00 | 1.00 fold | 1.00 | 1.00 fold | 1.00 | 1.00 fold | 0.36 | 0.36 fold | 2.07 | 2.07 fold | 1.37 | 1.37 fold | IP-10 fold-change ([3]; Subject 6): 7.26; IP-10 fold-change (preproinsulin peptides) ([3]; Subject 6): 7.26 fold; IP-10 fold-change ([3]; Subject 7): 2.18; IP-10 fold-change (preproinsulin peptides) ([3]; Subject 7): 2.18 fold; subjects with elevated whole blood IP-10 release (2-fold greater than medium alone) [3]: recognized more weakly by three subjects
NQHLCGSHLVEALYLVC [SEQ ID NO: 51] | 0.91 | 0.91 fold | 0.82 | 0.82 fold | 1.66 | 1.66 fold | 0.53 | 0.53 fold | 1.00 | 1.00 fold | 1.00 | 1.00 fold | 1.00 | 1.00 fold | 0.21 | 0.21 fold | 0.95 | 0.95 fold | 1.45 | 1.45 fold | IP-10 fold-change ([3]; Subject 6): 75.09; IP-10 fold-change (preproinsulin peptides) ([3]; Subject 6): 75.09 fold; IP-10 fold-change ([3]; Subject 7): 1.57; IP-10 fold-change (preproinsulin peptides) ([3]; Subject 7): 1.57 fold; subjects with elevated whole blood IP-10 release (2-fold greater than medium alone) [3]: pronounced in one subject
NVGADIKKTMEGPVEGR [SEQ ID NO: 69] | – | – | – | – | – | – | – | – | – | – | – | – | – | – | – | – | – | – | – | – | subjects with elevated whole blood IFN-γ release [1]: Only Subject 7 responded; subjects with elevated whole blood IL-2 release [2]: Only Subject 7 responded; subjects with elevated whole blood IP-10 release (2-fold greater than medium alone) [3]: Only Subject 7 responded
PKAARPPVTPVLLEKKS [SEQ ID NO: 13] | – | – | – | – | – | – | – | – | – | – | – | – | – | – | – | – | – | – | – | – | subjects with elevated whole blood IFN-γ release [1]: not IL-2 or IFN-γ release; subjects with elevated whole blood IL-2 release [2]: not IL-2; subjects with elevated whole blood IP-10 release (2-fold greater than medium alone) [3]: all four subjects
PKTRREAEVGQVELGGG [SEQ ID NO: 52] | 1.07 | 1.07 fold | 1.08 | 1.08 fold | 0.81 | 0.81 fold | 0.52 | 0.52 fold | 1.00 | 1.00 fold | 1.00 | 1.00 fold | 1.00 | 1.00 fold | 0.21 | 0.21 fold | 1.08 | 1.08 fold | 1.56 | 1.56 fold | IP-10 fold-change ([3]; Subject 6): 3.69; IP-10 fold-change (preproinsulin peptides) ([3]; Subject 6): 3.69 fold; IP-10 fold-change ([3]; Subject 7): 0.97; IP-10 fold-change (preproinsulin peptides) ([3]; Subject 7): 0.97 fold
PLALEGSLQKRGIVEQC [SEQ ID NO: 58] | 0.43 | 0.43 fold | 0.82 | 0.82 fold | 0.86 | 0.86 fold | 1.53 | 1.53 fold | 1.00 | 1.00 fold | 1.00 | 1.00 fold | 1.00 | 1.00 fold | 3.50 | 3.50 fold | 1.23 | 1.23 fold | 1.02 | 1.02 fold | IP-10 fold-change ([3]; Subject 6): 0.87; IP-10 fold-change (preproinsulin peptides) ([3]; Subject 6): 0.87 fold; IP-10 fold-change ([3]; Subject 7): 1.09; IP-10 fold-change (preproinsulin peptides) ([3]; Subject 7): 1.09 fold
PLLALLALWGPDPAAAF [SEQ ID NO: 45] | 0.78 | 0.78 fold | 1.53 | 1.53 fold | 1.11 | 1.11 fold | 1.55 | 1.55 fold | 1.00 | 1.00 fold | 1.00 | 1.00 fold | 1.64 | 1.64 fold | 3.77 | 3.77 fold | 3.27 | 3.27 fold | 6.60 | 6.60 fold | IP-10 fold-change ([3]; Subject 6): 31.61; IP-10 fold-change (preproinsulin peptides) ([3]; Subject 6): 31.61 fold; IP-10 fold-change ([3]; Subject 7): 2.73; IP-10 fold-change (preproinsulin peptides) ([3]; Subject 7): 2.73 fold; subjects with elevated whole blood IP-10 release (2-fold greater than medium alone) [3]: all four subjects
REAEDLQVGQVELGGGP [SEQ ID NO: 48] | 0.75 | 0.75 fold | 0.88 | 0.88 fold | 1.07 | 1.07 fold | 0.67 | 0.67 fold | 1.00 | 1.00 fold | 1.00 | 1.00 fold | 1.12 | 1.12 fold | 0.50 | 0.50 fold | 2.00 | 2.00 fold | 1.67 | 1.67 fold | IP-10 fold-change ([3]; Subject 6): 1.13; IP-10 fold-change (preproinsulin peptides) ([3]; Subject 6): 1.13 fold; IP-10 fold-change ([3]; Subject 7): 2.48; IP-10 fold-change (preproinsulin peptides) ([3]; Subject 7): 2.48 fold; subjects with elevated whole blood IP-10 release (2-fold greater than medium alone) [3]: immunogenic
RGFFYTPKTRREAEVGE [SEQ ID NO: 57] | 1.06 | 1.06 fold | 0.82 | 0.82 fold | 1.06 | 1.06 fold | 1.09 | 1.09 fold | 1.00 | 1.00 fold | 1.00 | 1.00 fold | 1.00 | 1.00 fold | 2.59 | 2.59 fold | 0.92 | 0.92 fold | 0.91 | 0.91 fold | IP-10 fold-change ([3]; Subject 6): 0.90; IP-10 fold-change (preproinsulin peptides) ([3]; Subject 6): 0.90 fold; IP-10 fold-change ([3]; Subject 7): 0.75; IP-10 fold-change (preproinsulin peptides) ([3]; Subject 7): 0.75 fold
RREAEDLEGSLQPLALE [SEQ ID NO: 49] | 0.99 | 0.99 fold | 1.27 | 1.27 fold | 1.00 | 1.00 fold | 0.77 | 0.77 fold | 1.00 | 1.00 fold | 1.00 | 1.00 fold | 1.08 | 1.08 fold | 0.42 | 0.42 fold | 1.36 | 1.36 fold | 2.58 | 2.58 fold | IP-10 fold-change ([3]; Subject 6): 3.15; IP-10 fold-change (preproinsulin peptides) ([3]; Subject 6): 3.15 fold; IP-10 fold-change ([3]; Subject 7): 0.99; IP-10 fold-change (preproinsulin peptides) ([3]; Subject 7): 0.99 fold
SSEVQQVPSPVSSEPPK [SEQ ID NO: 68] | – | – | – | – | – | – | – | – | – | – | – | – | – | – | – | – | – | – | – | – | subjects with elevated whole blood IFN-γ release [1]: Only Subject 7 responded; subjects with elevated whole blood IL-2 release [2]: Only Subject 7 responded; subjects with elevated whole blood IP-10 release (2-fold greater than medium alone) [3]: Only Subject 7 responded
WESGCTVIVMLTPLVED [SEQ ID NO: 67] | – | – | – | – | – | – | – | – | – | – | – | – | – | – | – | – | – | – | – | – | subjects with elevated whole blood IFN-γ release [1]: Only Subject 7 responded; subjects with elevated whole blood IL-2 release [2]: Only Subject 7 responded; subjects with elevated whole blood IP-10 release (2-fold greater than medium alone) [3]: Only Subject 7 responded
